Drawing on PubChem BioAssay AID493108 (The Scripps Research Institute Molecular Screening Center, 2011), this text covers inhibition for three compounds.

The source made the active and inactive calls. The rule behind the calls is not given here.

Among the test systems are LYPLA1; ABHD11; LYPLA2.
Holding throughout (assay): in situ serine hydrolase inhibition, LYPLA1/LYPLA2/ABHD11 – cell-based, gel-based ABPP, fluorescence, late-stage follow-up (AID 493108)
Common to all, as to details: cells, competitive ABPP fluorescence gel, at 0.03 µM, stronger effect = higher value

In the case of `CC(C)(O)c1cnn(C(=O)N2CCC(C(C)(C)C)CC2)n1`, the inhibition in the experiment with LYPLA1, in the experiment with ABHD11 and with LYPLA2 was 100% throughout.
As to `CC(C)(C)C1CCN(C(=O)n2ncc(C(O)(c3ccccc3)c3ccccc3)n2)CC1`, the inhibition with LYPLA1, with ABHD11 and in the experiment with LYPLA2 was 100% each time.
As for `CCC1CCCCN1C(=O)n1ncc(C(O)(c2ccccc2)c2ccccc2)n1` (centres undefined), the inhibition in the experiment with LYPLA1 is 0% (inactive); with ABHD11, 100%; in the experiment on LYPLA2, 0% (inactive).

As usually defined, the inhibition is how much of the control response was suppressed.
